The values below come from PubChem BioAssay (NCI).

Where “and” joins values, the source holds several entries; their conditions need not be identical. Equal values may be shown once.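 Protocol summary: plate cells (96-well), add compound at 5 concentrations, incubate 48 h, interpolate endpoints linearly. GI50 marks 50% less growth. At the TGI there is no net growth.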

Some test systems named below: MALME-3M melanoma; MOLT-4 leukemia; RXF 393 renal; SK-OV-3 ovarian; HOP-92 NSCLC; SR leukemia; CAKI-1 renal; SNB-19 CNS; KM12 colon; ACHN renal.
Assay in all cases: NCI anticancer screen, dose series, 48 h

As for `Cn1cc(C2=C(c3cn(CCCCCSC(=N)N)c4ccccc34)C(=O)NC2=O)c2ccccc21`, the GI50 in the experiment with MALME-3M melanoma was 4.25 µM; with MOLT-4 leukemia, 2.06 µM; in the experiment with RXF 393 renal, 2.55 µM; with SK-OV-3 ovarian, 2.99 µM; with HOP-92 NSCLC, 3.27 µM; in the experiment with SR leukemia, 0.79 µM. Besides, the GI50 was 4.03 µM in the experiment with CAKI-1 renal, 3.52 µM in the experiment on SNB-19 CNS, 2.08 µM in the experiment on KM12 colon and 3.54 µM in the experiment on ACHN renal. The TGI came to 8.08 µM in the experiment on MALME-3M melanoma; 6.25 µM with MOLT-4 leukemia; 5.68 µM in the experiment on RXF 393 renal; 6.16 µM in the experiment on SK-OV-3 ovarian; 7.21 µM in the experiment on HOP-92 NSCLC; 2.24 µM with SR leukemia. For the same molecule, the TGI in the experiment with CAKI-1 renal amounted to 7.94 µM; in the experiment on SNB-19 CNS, 6.82 µM; in the experiment with KM12 colon, 5.41 µM; with ACHN renal it was 6.94 µM.
For `O=C(Nc1nc2ccccc2s1)Nc1ccc([N+](=O)[O-])cc1Cl`, the GI50 in the experiment on MALME-3M melanoma is 2.82 µM; with MOLT-4 leukemia, 5.92 µM; in the experiment on RXF 393 renal, 1.59 µM; in the experiment with SK-OV-3 ovarian it was 8.52 µM; with HOP-92 NSCLC it was 3.81 µM; in the experiment on SR leukemia, 3.31 µM. In addition, the GI50 in the experiment on CAKI-1 renal is 6.25 µM; in the experiment with SNB-19 CNS it was 8.2 µM; with KM12 colon it was 2.82 µM; in the experiment on ACHN renal, 6.53 µM. The TGI is 11.1 µM in the experiment with MALME-3M melanoma; above 47.4 µM with MOLT-4 leukemia; 3.28 µM in the experiment on RXF 393 renal; 22.2 µM in the experiment on SK-OV-3 ovarian; 11.7 µM with HOP-92 NSCLC; above 100 µM in the experiment with SR leukemia. Moreover, the TGI with CAKI-1 renal came out at 16.2 µM; in the experiment on SNB-19 CNS it was 26.7 µM; with KM12 colon it was 8.48 µM; in the experiment on ACHN renal, 18 µM.
Turning to `CC(=O)[O][Hg][c]1c(C)c(C)cc(C)c1C`, the GI50 with MALME-3M melanoma is 1.33 µM; in the experiment with MOLT-4 leukemia it was 0.242 µM; in the experiment with RXF 393 renal, 0.482 µM; in the experiment on SK-OV-3 ovarian it was 3.63 µM; with HOP-92 NSCLC, 0.128 µM; with SR leukemia, 0.0629 µM. Further, the GI50 was 2.03 µM in the experiment with CAKI-1 renal, 1.7 µM with SNB-19 CNS, 2.22 µM with KM12 colon and 3.71 µM with ACHN renal. Moreover, the TGI in the experiment on MALME-3M melanoma is 2.75 µM; in the experiment with MOLT-4 leukemia, 4.54 µM; with RXF 393 renal it was 1.24 µM; in the experiment with SK-OV-3 ovarian, 6.96 µM; in the experiment with HOP-92 NSCLC, 0.705 µM; in the experiment on SR leukemia it was 2.21 µM. Moreover, the TGI is 5.4 µM in the experiment with CAKI-1 renal, 3.76 µM in the experiment on SNB-19 CNS, 6.26 µM with KM12 colon and 8.18 µM in the experiment on ACHN renal.
As for `Brc1ccc2ns[s+]c2c1`, the TGI is above 86 µM with MALME-3M melanoma; above 100 µM with MOLT-4 leukemia; above 100 µM with RXF 393 renal; above 100 µM in the experiment on SK-OV-3 ovarian; 95 µM with HOP-92 NSCLC; above 100 µM in the experiment on SR leukemia. Besides, the TGI with CAKI-1 renal, with SNB-19 CNS, with KM12 colon and in the experiment on ACHN renal was above 100 µM in each case.
On to `Cc1cc([N+](=O)[O-])c2ccccc2[n+]1[O-]`, for which the GI50 with MALME-3M melanoma is 1.39 µM and 2.17 µM; with MOLT-4 leukemia, 0.869 µM and 1.19 µM; in the experiment with RXF 393 renal, 0.181 µM and 0.17 µM; with SK-OV-3 ovarian, 1.94 µM and 3.33 µM; in the experiment with HOP-92 NSCLC, 0.308 µM and 0.153 µM; in the experiment with SR leukemia, 0.0279 µM and 0.0264 µM. Moreover, the GI50 is 0.541 µM and 0.627 µM in the experiment with CAKI-1 renal; 0.448 µM and 0.848 µM in the experiment with SNB-19 CNS; 0.173 µM and 0.203 µM in the experiment on KM12 colon; 0.0758 µM and 0.0614 µM with ACHN renal. The TGI in the experiment on MALME-3M melanoma is 3.07 µM and 4.34 µM; in the experiment on MOLT-4 leukemia, 7.8 µM and 5.95 µM; with RXF 393 renal, 0.455 µM and 0.512 µM; in the experiment on SK-OV-3 ovarian it was 6.07 µM and 11.6 µM; in the experiment on HOP-92 NSCLC, 1.73 µM and 0.597 µM; in the experiment with CAKI-1 renal, 3.92 µM and 2.35 µM. In addition, the TGI with SNB-19 CNS was 4.06 µM and 8.29 µM; in the experiment with KM12 colon, 0.829 µM and 1.05 µM; with ACHN renal, 0.394 µM and 0.721 µM.
As to `C#CCOc1ccc2ncnc(Nc3ccc(NC(=O)C=C)cc3)c2c1`, the GI50 in the experiment on MALME-3M melanoma was 6.23 µM; in the experiment on MOLT-4 leukemia it was 28.4 µM; with RXF 393 renal it was 15.2 µM; in the experiment with SK-OV-3 ovarian, above 100 µM; in the experiment on HOP-92 NSCLC, 7.84 µM; with SR leukemia, 3.47 µM. The GI50 in the experiment with CAKI-1 renal was above 100 µM; in the experiment on SNB-19 CNS, above 100 µM; in the experiment with KM12 colon it was 34.6 µM; in the experiment with ACHN renal, 28.2 µM. The TGI in the experiment with MALME-3M melanoma was 30.2 µM; with MOLT-4 leukemia, above 100 µM; in the experiment on RXF 393 renal it was 58.8 µM; in the experiment on SK-OV-3 ovarian it was above 100 µM; in the experiment on HOP-92 NSCLC, 52.7 µM; with SR leukemia, 57.4 µM. The TGI in the experiment on CAKI-1 renal, with SNB-19 CNS, in the experiment on KM12 colon and in the experiment on ACHN renal was above 100 µM throughout.
Consider `O=c1[nH]cnc2c1nnn2CCCCCCCCCCCCn1nnc2c(=O)[nH]cnc21`, for which the TGI in the experiment with MALME-3M melanoma was above 100 µM; in the experiment on MOLT-4 leukemia, above 100 µM; in the experiment on RXF 393 renal, above 50.5 µM; in the experiment with SK-OV-3 ovarian, 38.5 µM; in the experiment on HOP-92 NSCLC, 53 µM; in the experiment on SR leukemia it was above 100 µM. The TGI is above 100 µM in the experiment on CAKI-1 renal, 54.9 µM in the experiment on SNB-19 CNS, above 100 µM in the experiment with KM12 colon and above 100 µM with ACHN renal.
`NS(=O)(=O)OCCCCCCCOS(N)(=O)=O`: the TGI in the experiment with MALME-3M melanoma was found to be 1050 µM; with MOLT-4 leukemia, 790 µM; in the experiment with RXF 393 renal, 660 µM; in the experiment with SK-OV-3 ovarian, 1570 µM; in the experiment on HOP-92 NSCLC, 781 µM; with SR leukemia, 912 µM. Besides, the TGI came out at 594 µM with CAKI-1 renal, 1250 µM with SNB-19 CNS, 1000 µM in the experiment with KM12 colon and 951 µM in the experiment with ACHN renal.
For `COc1nnc2ccc(N3CCC(c4ccc(OCCN5CCN(C)C(=O)[C@H]5C)cc4)CC3)nn12`, the GI50 with MALME-3M melanoma was 0.431 µM; in the experiment on MOLT-4 leukemia, 0.328 µM; with RXF 393 renal it was 3.85 µM; in the experiment on SK-OV-3 ovarian, 0.0774 µM; with HOP-92 NSCLC, 0.0541 µM; in the experiment with SR leukemia, 0.0198 µM. In addition, the GI50 is 0.0237 µM in the experiment with CAKI-1 renal, 0.224 µM with SNB-19 CNS, 0.322 µM in the experiment with KM12 colon and 0.172 µM with ACHN renal. The TGI in the experiment on MALME-3M melanoma is above 100 µM; in the experiment on MOLT-4 leukemia it was above 100 µM; in the experiment with RXF 393 renal it was above 100 µM; in the experiment on SK-OV-3 ovarian, above 42.1 µM; with HOP-92 NSCLC, above 65.3 µM; in the experiment with SR leukemia, above 100 µM. Also, the TGI in the experiment with CAKI-1 renal, in the experiment with SNB-19 CNS, in the experiment on KM12 colon and in the experiment on ACHN renal was above 100 µM each time.
For the molecule `COc1cc(-c2nn(-c3cccc(NC(=O)c4ccc(Cl)c(C(F)(F)F)c4)c3)cc2-c2ccncc2)ccc1Cl`, the GI50 is 0.922 µM in the experiment with MALME-3M melanoma; 5.24 µM in the experiment with MOLT-4 leukemia; 2.01 µM with RXF 393 renal; 7.53 µM in the experiment on SK-OV-3 ovarian; 0.425 µM in the experiment on HOP-92 NSCLC; 0.809 µM in the experiment on SR leukemia. The GI50 is 2.34 µM with CAKI-1 renal, 7.64 µM in the experiment with SNB-19 CNS, 1.6 µM in the experiment on KM12 colon and 1.91 µM in the experiment on ACHN renal. Besides, the TGI was 6.68 µM in the experiment on MALME-3M melanoma; above 32.5 µM with MOLT-4 leukemia; above 24.6 µM in the experiment on RXF 393 renal; above 32.5 µM in the experiment on SK-OV-3 ovarian; 2.5 µM in the experiment with HOP-92 NSCLC; above 10.2 µM in the experiment on SR leukemia. In addition, the TGI in the experiment on CAKI-1 renal, in the experiment on SNB-19 CNS, in the experiment with KM12 colon and in the experiment on ACHN renal was above 32.5 µM each time.
For `CCC(=O)c1c(C(F)(F)F)n([O-])c2cc(F)c(F)cc2[n+]1=O`, the GI50 in the experiment on MALME-3M melanoma is 0.845 µM; in the experiment with MOLT-4 leukemia, 0.196 µM; in the experiment on RXF 393 renal, 1.37 µM; in the experiment with SK-OV-3 ovarian, 1.86 µM; in the experiment on HOP-92 NSCLC, 0.762 µM; in the experiment with SR leukemia it was 0.0607 µM. Further, the GI50 was 0.329 µM with CAKI-1 renal, 1.35 µM in the experiment on SNB-19 CNS, 1.51 µM in the experiment on KM12 colon and 1.25 µM in the experiment with ACHN renal. Moreover, the TGI in the experiment with MALME-3M melanoma was 2.24 µM; with MOLT-4 leukemia, above 100 µM; in the experiment with RXF 393 renal, 3.25 µM; with SK-OV-3 ovarian, 3.88 µM; in the experiment with HOP-92 NSCLC, 2.19 µM; in the experiment with SR leukemia, 0.263 µM. For the same molecule, the TGI in the experiment on CAKI-1 renal turned out to be 1.03 µM; with SNB-19 CNS, 3.91 µM; with KM12 colon, 3.13 µM; in the experiment on ACHN renal, 2.66 µM.
In the case of `CN1C(=O)C2(c3ccccc31)N(c1ccc(Cl)cc1)C(=O)C2(c1ccccc1)c1ccccc1` (centres undefined), the GI50 in the experiment on MALME-3M melanoma is 50.8 µM; with MOLT-4 leukemia, 9.86 µM; with RXF 393 renal, 64.6 µM; in the experiment with SK-OV-3 ovarian, above 100 µM; in the experiment with HOP-92 NSCLC, 5.62 µM; in the experiment on SR leukemia, 41.7 µM. For the same molecule, the GI50 was above 100 µM in the experiment with CAKI-1 renal, 22.4 µM in the experiment on SNB-19 CNS, above 100 µM in the experiment with KM12 colon and 78.4 µM in the experiment on ACHN renal. Moreover, the TGI in the experiment with MALME-3M melanoma is above 100 µM; in the experiment with MOLT-4 leukemia, above 100 µM; with RXF 393 renal it was above 100 µM; with SK-OV-3 ovarian it was above 100 µM; with HOP-92 NSCLC it was 49.1 µM; in the experiment on SR leukemia, above 100 µM. Besides, the TGI with CAKI-1 renal, in the experiment with SNB-19 CNS, in the experiment with KM12 colon and in the experiment on ACHN renal was above 100 µM in each case.
